Test results published in US7186559B2, “Apparatus and method for electroporation of biological samples” (Maxcyte, Inc., priority 2001, dated 2007).

Tests used:
CLL-B cells = experiment: Caspase inhibitor effect on human CD40L transfection of CLL-B cells; assay type: cell-based; conditions: 100 μm inhibitor in culture medium, 24 hour post transfection
Description: Caspase inhibitor effect on human CD40L transfection of CLL-B cells was investigated. CLL-B cells (1.4×10^8 cells/mL) were electroporated by four 400 μs pulses at indicated electric fields in the present of DNA plasmid (200 μg/mL) coding for hCD40L. Following a 20 minute incubation at 37° C., cells were cultured in medium either with (+I) or without (−I) caspase inhibitor (Boc-Asp-FMK, 100 μm). hCD40L, expression was analyzed 24 hour post transfection by flow cytometry with antibodies against hCD40L conjugate-labeled with Cychrome.

[1] = Organ distribution of calcein-loaded platelets; assay type: in vivo, rabbit; conditions: rabbits, organs harvested within 1 half-life
From the text: In another series of studies, platelets loaded with calcein were infused into the rabbits and major organs harvested within 1 half-life.

Human platelets [2] = experiment: Activity (secretion or aggregation) of loaded platelets; assay type: cell-based
Description: Efficacy is expressed as the percentage of cells that took up fluorescent markers (calcein or albumin+fluorescein). “Activity” was determined by measuring biologic functions, such as secretion or aggregation (for MaxCyte's application, any detectable level will probably suffice). “Survival” is the circulating half-life in an animal model.

platelets = experiment: Collagen stimulation of calcein-loaded platelets; assay type: cell-based; conditions: platelets electroporated with calcein, collagen stimulus
Description: Platelets were treated in accordance with the present invention in the presence of a marker dye, calcein, then stimulated with increasing doses of collagen, a physiologic stimulant for platelets. […] FIGS. 24A and 24B show platelets that had been washed but otherwise not treated (Untreated[N]}), platelets that were incubated with the fluorescent marker calcein (calcein control) and platelets electroporated with calcein (electroporated) were subsequently stimulated with the physiologic stimulus, collagen.

Human platelets [3] = experiment: Loading of platelets with fluorescent marker by flow electroporation; assay type: cell-based
Description: Efficacy is expressed as the percentage of cells that took up fluorescent markers (calcein or albumin+fluorescein). “Activity” was determined by measuring biologic functions, such as secretion or aggregation (for MaxCyte's application, any detectable level will probably suffice). “Survival” is the circulating half-life in an animal model. FIGS. 23A and 23B show scatter plots from a flow cytometer. Control (FIG. 23A) was incubated in a dilute solution of the fluorescent dye, calcein, for approximately 1 hour. The test sample (FIG. 23B) was suspended in the same dye solution, but was run through the electroporation device. Similar results were obtained using fluoresceinated albumin.

hemoglobin = hemoglobin (Homo sapiens, UniProt P68871); conditions: cited from earlier work
hemoglobin, sequence (P68871 2-147 limits assumed): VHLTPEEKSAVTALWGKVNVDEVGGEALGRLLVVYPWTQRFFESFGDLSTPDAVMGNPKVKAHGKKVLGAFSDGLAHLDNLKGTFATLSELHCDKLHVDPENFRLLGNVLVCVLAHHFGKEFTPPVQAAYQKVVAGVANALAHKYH
hemoglobin, sequence (P69905 2-142 partner limits assumed): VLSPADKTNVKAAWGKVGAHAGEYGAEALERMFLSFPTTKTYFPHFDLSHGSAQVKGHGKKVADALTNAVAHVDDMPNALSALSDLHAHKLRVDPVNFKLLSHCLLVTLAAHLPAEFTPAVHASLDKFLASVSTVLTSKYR

resting Lymphocytes = experiment: Electroporation (transfection) of resting lymphocytes; assay type: cell-based, human; conditions: Static
Description: Primary lymphocytes were suspended in B&K buffer (125 mM KCl, 15 mM NaCl, 1.2 mM MgCl2, 3 mM glucose, 25 mM Hepes, pH 7.4) cell concentration was set from 1×10^7 cells/mL to 6×10^8 cells/mL together with DNA plasmid from 50 μg/mL to 1 mg/mL. DNA concentration was 50 ug/mL–1000 ug/mL. Electroporation was performed at 2.3 kV/cm, 400 μs, 4 pulses for small volume experiments (15 μl) or 2.2 kV/cm, 1.6 ms, 1 pulse for large volume experiments (0.5 ml–2 ml) was performed under static conditions at room temperature. […] Cells were cultured in culture medium for various periods (up to 72 hours) and the transfection efficiency was analyzed.
Seven transgenes (Ds-Red, eGFP, βGal, hEndostatin, HEPO, hIFNα, hIL-2) were tested in these experiments. […] When pCMV-Ds-Red or pCMV-EGFP was used, the percentage of the fluorescent cells was counted, by FACS or by manual counting under phase contrast and fluorescence microscope, as the transfection efficiency. […] When pCMV-Endostatin was used, the Endostatin concentration in the supernatant was analyzed by ELISA kit from Cytimmune Sciences, Inc. (College Park, Md.). For pCMV-EPO electroporation, the erythropoietin concentration in the supernatant was analyzed by R&D ELISA kit (Minneapolis, Minn.). […]

With `CC(C)(C)OC(=O)NC(CC(=O)O)C(=O)CF` (stereo not drawn) [Boc-Asp-FMK] the hCD40L expression level (CLL-B cells) was “improves” and the “hCD40L expression: percentage of expressed cells” value (CLL-B cells) was “improves”.

With `O=C(O)CN(CC(=O)O)Cc1cc2c(cc1O)Oc1cc(O)c(CN(CC(=O)O)CC(=O)O)cc1C21OC(=O)c2ccccc21` [CALCEIN, calcein] the “organ distribution of loaded platelets” value [1] was “found in multiple organs”, the “Activity (% of control)” value (Human platelets [2]) was 40–60 % of control and the “collagen-stimulated Calcein release” value (platelets) was “did not release the dye”. The “Efficacy (% of cells with marker)” value (Human platelets [3]) was 80+ % of cells with marker.

In the case of `O=P(O)(O)O[C@H]1[C@H](OP(=O)(O)O)[C@@H](OP(=O)(O)O)[C@H](OP(=O)(O)O)[C@@H](OP(=O)(O)O)[C@H]1OP(=O)(O)O` [IHP, inositol hexaphosphate], the “affinity to hemoglobin relative to DPG” value (hemoglobin; higher than DPG) is listed as 1000 fold and the P50 of hemoglobin (hemoglobin; pH 7.4, 37° C.) is listed as no more than 96.4 mm Hg.

In the case of βGal, the “Efficiency (% of + cells)” value (resting Lymphocytes) is reported as 15% and the Viability (resting Lymphocytes) is reported as 40%.
